Measured values taken from patent US9815788B2, “Anti-angiogenic compounds” (University College Dublin National University of Ireland, …, priority 2012, dated 2017).

Assays:
CysLT2 receptor = target: T1, CysLT2 receptor (Homo sapiens, UniProt Q9NS75); assay: CysLT2 calcium mobilisation assay in HEK 293 cells; format: cell-based; settings: HEK293, 30 nM LTC4, HEK-293 cells expressing CysLT2, read-out: inhibition of calcium mobilisation (CysLT2 antagonism)
T1 construct: host or cells: HEK 293 cells
T1 sequence (Q9NS75 1-346): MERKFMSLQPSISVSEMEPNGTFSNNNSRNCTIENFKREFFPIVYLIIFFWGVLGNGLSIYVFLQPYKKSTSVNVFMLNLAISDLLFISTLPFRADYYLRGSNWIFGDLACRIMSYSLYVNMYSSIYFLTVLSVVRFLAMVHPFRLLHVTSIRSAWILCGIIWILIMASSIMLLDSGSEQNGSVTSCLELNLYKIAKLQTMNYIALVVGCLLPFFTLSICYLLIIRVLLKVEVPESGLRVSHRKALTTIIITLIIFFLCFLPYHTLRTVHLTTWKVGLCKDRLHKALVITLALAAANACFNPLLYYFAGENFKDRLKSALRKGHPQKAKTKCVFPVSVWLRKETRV
Description: (§1) FIG. 15 tables the percentage inhibition by compounds 11B_CC11_HCl and 11B_CC16_HCl on the cysteinyl leukotriene pathway in in vitro and ex vivo assays. […] For in vitro cysteinyl leukotriene cell-based assays 11B_CC11_HCl and 11B_CC16_HCl, were tested at 30 μM concentration in duplicate, in a single experiment for their ability to inhibit the calcium mobilisation response of the CysLT1 receptor to 0.1 nM leukotriene D4 in CHO cells over-expressing the CysLT1 receptor or the calcium mobilisation response of the CysLT2 receptor to 30 nM of leukotriene C4 in HEK 293 cells over expressing the CysLT2 receptor.
(§2) Target profiling using Cerep and Eurofins/Panlabs profiling screens was undertaken using 11B_CC11_HCl and 11B_CC16_HCl in order to investigate the mechanism of action. […] Test substance (30 LM)-induced isometrically recorded contraction by 50 percent or more within 5 min, relative to control 3 nM leukotriene D4 response, indicates possible cysteinyl-leukotriene LT1 receptor agonist activity. […] To measure inhibition of cysteinyl leukotriene 1 (CysLT1 [LTD4]) and cysteinyl leukotriene 2 (CysLT2 [LTC4]) receptor activity, calcium mobilisation was measured using Fluor-3-loaded CHO cells (for cysLT1 assays) or HEK-293 cells (for CysLT2 assays) which stably express either the CysLT1 or CysLT2 receptors. […]

CysLT1 receptor = target: T2, CysLT1 receptor (Homo sapiens, UniProt Q9Y271); assay: CysLT1 calcium mobilisation assay in CHO cells; format: cell-based; settings: 0.1 nM LTD4, CHO cells expressing CysLT1, read-out: inhibition of calcium mobilisation (CysLT1 antagonism)
T2 construct: host or cells: CHO cells
T2 sequence (Q9Y271 1-337): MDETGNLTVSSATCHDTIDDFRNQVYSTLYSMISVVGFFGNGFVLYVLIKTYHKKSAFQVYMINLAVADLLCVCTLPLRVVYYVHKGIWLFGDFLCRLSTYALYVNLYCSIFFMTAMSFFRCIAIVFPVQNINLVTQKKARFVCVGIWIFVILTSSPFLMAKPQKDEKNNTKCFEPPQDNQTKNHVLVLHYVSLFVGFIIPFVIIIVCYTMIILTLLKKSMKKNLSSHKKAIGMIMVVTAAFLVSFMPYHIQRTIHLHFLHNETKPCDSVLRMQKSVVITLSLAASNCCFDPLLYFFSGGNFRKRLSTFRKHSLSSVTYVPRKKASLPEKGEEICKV
Description: as §1, §2

[1] = target: T3, cysteinyl-leukotriene CysLT1 (Cavia porcellus, UniProt Q2NNR5); assay: Ex vivo cysteinyl leukotriene guinea pig lung strip assay; settings: 30 μM, 3 nM leukotriene D4
T3 construct: a lung strip obtained from Duncan Hartley derived male or female guinea pigs; from tissue; host or cells: guinea pig lung strip
T3 sequence (Q2NNR5 1-340): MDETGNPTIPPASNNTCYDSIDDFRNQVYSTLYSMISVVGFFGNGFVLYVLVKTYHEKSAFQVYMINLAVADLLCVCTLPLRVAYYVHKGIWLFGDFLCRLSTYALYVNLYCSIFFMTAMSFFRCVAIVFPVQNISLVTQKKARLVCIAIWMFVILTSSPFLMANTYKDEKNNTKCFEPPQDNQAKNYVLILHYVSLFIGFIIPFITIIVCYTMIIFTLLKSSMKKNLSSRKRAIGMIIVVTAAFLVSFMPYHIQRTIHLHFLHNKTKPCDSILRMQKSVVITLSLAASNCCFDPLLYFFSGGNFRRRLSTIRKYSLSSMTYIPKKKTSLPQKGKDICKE
Description: as §1, §2

inhibition at 30 µM (CysLT2 receptor): 48%
inhibition at 30 µM (CysLT1 receptor): 137%
reduction of the leukotriene D4-induced contractile response [1]: 100%
SMILES: Cl.Oc1ccccc1C#Cc1ccc2ccccc2n1 [Compound 11B_CC16_HCl, 2-Quinolin-2-yl-ylethynyl-phenol HCl salt]
